Experimental data published in patent publication US10544444B2, “Compositions for in situ labeling of bacterial cell walls with fluorophores and methods of use thereof” (priority 2012, dated 2020).

Key:
[1] = system: Agrobacterium tumefaciens; assay: Cell wall / PG labeling of live A. tumefaciens, fluorescence microscopy; type: cell-based; conditions: for incorporation into the cell wall: control experiments, fluorescent D-Ala vs fluorescent L-Ala
[2] = system: E. coli, B. subtilis, A. tumefaciens, L. lactis, M. conglomeratus, C. crescentus and S. aureus; assay: Short pulse labeling of evolutionarily distinct bacteria; type: cell-based; conditions: pulsed for 2%-8% of generation time, immediately fixed

SMILES | incorporation into the cell wall [1] | visibility of sites of active cell wall synthesis [2] | PG labeling, long labeling pulses ([1]; live A. tumefaciens, long pulse)
N[C@@H](CNC(=O)c1cc2ccc(O)cc2oc1=O)C(=O)O [HALA] | only D-HCC was incorporated | – | –
NC(CNC(=O)c1cc2ccc(O)cc2oc1=O)C(=O)O (stereo not shown) [HADA] | incorporated into the cell wall | sites of active synthesis were clearly visible | uniformly label PG
